Results published in paper PMC11071649, “Synthesis and Selective Anticancer Activity Evaluation of 2-phenylacrylonitrile Derivatives as Tubulin Inhibitors” (Current Medicinal Chemistry, 2024).

What was measured:
Type in all cases: cell-based, human
[1] = test system: A549 lung cancer cell; assay: MTT anti-proliferative assay, A549; settings: MTT, 48 h
Procedure: (§1) The anti-proliferation activities of the synthesized analogs were assessed by an in vitro MTT assay conducted on thirteen human cell lines. Their cytotoxic activities were evaluated by measuring the inhibition of net cell growth. […]
(§2) 1.6. Cell lines and cell culture
(§3) MTT was purchased from Sigma-Aldrich Co. (St. Louis, MO, USA). The PI and Annexin V-FITC apoptosis detection kit were purchased from Invitrogen (Eugene, OR, USA). All human cell lines were used in this study. […]
(§4) cell, MCF-7 breast cancer cell, MCF-10A normal breast cell, Raji B lymphoblastoid cell and diffuse large B-cell lymphoma SU-DHL-10 cell were initially purchased from American Type Culture Collection (ATCC, Manassas, Virginia). media, DMEM, and FBS were provided from Gibco Company.
(§5) 1.7. Cell growth inhibition assay (MTT assay)
(§6) The experiment was carried out according to the method of reference. Briefly, cells were plated in 96-well plates at a den- […]
(§7) the anti-proliferative activities were determined by MTT assay. […]
(§8) (Becton-Dickinson, Franklin Lakes, NJ). […]

[2] = test system: MGC-803 late stage differentiation gastric cancer cell; assay: MTT anti-proliferative assay, MGC-803; settings: for IC50: MTT, 48 h
Procedure: as §1, §2, §3, §4, §5, §6, §7, §8

[3] = test system: HeLa cervical cancer cell; assay: MTT anti-proliferative assay, HeLa; settings: for IC50: MTT, 48 h
Procedure: as §1, §2, §3, §4, §5, §6, §7, §8

[4] = test system: SGC-7901 early differentiation gastric cancer cell; assay: MTT anti-proliferative assay, SGC-7901; settings: MTT, 48 h
Procedure: as §1, §2, §3, §4, §5, §6, §7, §8

[5] = test system: BEL-7402 liver cancer cell; assay: MTT anti-proliferative assay, BEL-7402; settings: MTT, 48 h
Procedure: as §1, §2, §3, §4, §5, §6, §7, §8

[6] = test system: HepG2 hepatoma cell; assay: MTT anti-proliferative assay, HepG2; settings: for IC50: MTT, 48 h, read-out: IC50 HepG-2
Procedure: as §1, §2, §3, §4, §5, §6, §7, §8

[7] = test system: AGS gastric cancer cell; assay: MTT anti-proliferative assay, AGS; settings: for IC50: MTT, 48 h
Procedure: as §1, §2, §3, §4, §5, §6, §7, §8

[8] = test system: MCF-10A normal breast cell; assay: MTT assay, MCF-10A normal cells; settings: 48 h
Procedure: as §1, §2, §3, §4, §5, §6, §7, §8

[9] = test system: MCF-7 breast cancer cell; assay: MTT anti-proliferative assay, MCF-7; settings: MTT, 48 h
Procedure: as §1, §2, §3, §4, §5, §6, §7, §8

[10] = test system: Raji B lymphoblastoid cell; assay: MTT anti-proliferative assay, Raji; settings: for IC50: MTT, 48 h, read-out: IC50 Raji
Procedure: as §1, §2, §3, §4, §5, §6, §7, §8

[11] = test system: L-02 normal liver cell; assay: MTT assay, L-02 normal cells; settings: 48 h
Procedure: as §1, §2, §3, §4, §5, §6, §7, §8

[12] = test system: HCT116 colectal cancer cell; assay: MTT anti-proliferative assay, HCT116; settings: for IC50: MTT, 48 h, read-out: IC50 HCT-116
Procedure: as §1, §2, §3, §4, §5, §6, §7, §8

[13] = test system: diffuse large B-cell lymphoma SU-DHL-10 cell; assay: MTT anti-proliferative assay, SU-DHL-10; settings: for IC50: MTT, 48 h, read-out: IC50 SU-DHL-10
Procedure: as §1, §2, §3, §4, §5, §6, §7, §8

N#C/C(=C\c1cccc(F)c1)c1ccc(C(F)(F)F)cc1 [Compound 1f2h]
> 1.7: SI (selectivity index), IC50 (L-02)/IC50 (SU-DHL-10) [13]
58.4 ± 9 µM: IC50 [13]
> 100 µM: IC50 [1] | IC50 [2] | IC50 [3] | IC50 [4] | IC50 [5] | IC50 [6] | IC50 [7] | IC50 [8] | IC50 [9] | IC50 [10] | IC50 [11] | IC50 [12]

N#C/C(=C\c1ccc(Br)cc1)c1ccc(OC(F)(F)F)cc1 [Compound 1a2d]
87.3 ± 4.1 µM: IC50 [3]
25.4 ± 6.8 µM: IC50 [12]
> 1.3: SI (selectivity index), IC50 (L-02)/IC50 (SU-DHL-10) [13]
> 3.9: SI (selectivity index), IC50 (L-02)/IC50 (HCT-116) [12]
> 1.5: SI (selectivity index), IC50 (L-02)/IC50 (Raji) [10]
64.9 ± 1.5 µM: IC50 [10]
> 4.1: SI (selectivity index), IC50 (L-02)/IC50 (HepG-2) [6]
24.3 ± 3.4 µM: IC50 [6]
> 1.1: SI (selectivity index), IC50 (L-02)/IC50 (HeLa) [3]
73.5 ± 17.3 µM: IC50 [13]
> 100 µM: IC50 [1] | IC50 [2] | IC50 [4] | IC50 [5] | IC50 [8] | IC50 [9] | IC50 [11]
> 5.0: SI (selectivity index), IC50 (L-02)/IC50 (AGS) [7]
19.6 ± 2.9 µM: IC50 [7]

Cc1ccc(/C=C(\C#N)c2ccc(C(F)(F)F)cc2)cc1 [Compound 1f2n]
37.9 ± 1 µM: IC50 [1]
46.4 ± 15 µM: IC50 [7]
57.3 ± 3.2 µM: IC50 [12]
> 100 µM: IC50 [2] | IC50 [3] | IC50 [4] | IC50 [5] | IC50 [6] | IC50 [8] | IC50 [9] | IC50 [10] | IC50 [11] | IC50 [13]
> 2.4: SI (selectivity index), IC50 (L-02)/IC50 (AGS) [7]

N#C/C(=C\c1ccc(F)cc1)c1ccc(C(F)(F)F)cc1 [Compound 1f2d]
> 100 µM: IC50 [1] | IC50 [3] | IC50 [4] | IC50 [5] | IC50 [6] | IC50 [7] | IC50 [8] | IC50 [9] | IC50 [10] | IC50 [11] | IC50 [12] | IC50 [13]
> 1.9: SI (selectivity index), IC50 (L-02)/IC50 (MGC-803) [2]
51.9 ± 2.1 µM: IC50 [2]

N#C/C(=C\c1ccco1)c1ccc(C(F)(F)F)cc1 [Compound 1f3a]
> 100 µM: IC50 [1] | IC50 [2] | IC50 [3] | IC50 [4] | IC50 [5] | IC50 [6] | IC50 [7] | IC50 [8] | IC50 [9] | IC50 [10] | IC50 [11] | IC50 [12] | IC50 [13]

COc1cccc(/C=C(\C#N)c2ccc(OC(F)(F)F)cc2)c1 [Compound 1a2k]
> 100 µM: IC50 [1] | IC50 [2] | IC50 [3] | IC50 [4] | IC50 [5] | IC50 [6] | IC50 [7] | IC50 [8] | IC50 [9] | IC50 [10] | IC50 [11] | IC50 [12] | IC50 [13]

COc1ccc(/C=C(\C#N)c2ccc(C(F)(F)F)cc2)cc1 [Compound 1f2s]
47.8 ± 0.7 µM: IC50 [12]
> 2.0: SI (selectivity index), IC50 (L-02)/IC50 (HCT-116) [12]
> 100 µM: IC50 [1] | IC50 [2] | IC50 [3] | IC50 [4] | IC50 [5] | IC50 [6] | IC50 [7] | IC50 [8] | IC50 [9] | IC50 [10] | IC50 [11] | IC50 [13]

N#C/C(=C\c1ccc(F)cc1)c1ccc(OC(F)(F)F)cc1 [Compound 1a2b]
> 100 µM: IC50 [1] | IC50 [4] | IC50 [6] | IC50 [8] | IC50 [9] | IC50 [11]
15 ± 2.7 µM: IC50 [5]
13.2 ± 3.3 µM: IC50 [7]
37.4 ± 5.8 µM: IC50 [2]
49 ± 7.4 µM: IC50 [10]
23.5 ± 4.6 µM: IC50 [12]
38.8 ± 3.7 µM: IC50 [13]
